In US12325867B2, “Organoid produced using carrier for cell culture, and method for evaluating drug toxicity using same” (Korea Research Institute of Chemical Technology, priority 2018, dated 2025):

Tested on: artificial myocardial structure (cardiac organoid)
Assay: contractile force-based cardiac toxicity assessment using the artificial myocardial structure
Assay type: cell-based, human
Description: Furthermore, after additionally treating an artificial myocardial structure prepared by coculturing gelatin oil capsules and cardiomyocytes with various drugs, contractile forces of the drug-treated artificial myocardial structure were checked.

| SMILES | beat rates (group treated with 10 nM) | contractile forces (group treated with 10 nM) | beat rates (group treated with 125 nM) |
| --- | --- | --- | --- |
| CC(C)NCC(O)c1ccc(O)c(O)c1 (stereo not drawn) [Isopreterenol] | accelerated | changed strongly |  |
| COc1ccc(CCN(C)CCCC(C#N)(c2ccc(OC)c(OC)c2)C(C)C)cc1OC (stereo not drawn) [verapamil] |  |  | slow down and become somewhat irregular |
